Data on one compound can be found in ChEMBL document CHEMBL1122274, “Inhibitors of glycolic acid oxidase. 4-substituted 2,4-dioxobutanoic acid derivatives” (J Med Chem, 1983).

The structures appear in SMILES notation.

A short description of data set [1]: Acidic dissociation constant (pKa) determined in 50% aqueous ethanol;ND is defined as no-data. The format is physicochemical.
The nature of data set [2]: Acidic dissociation constant (pKa) determined in 50% aqueous ethanol. The format is physicochemical.

Take `O=C(O)C(=O)CC(=O)c1ccc(-c2ccccc2)cc1`: the pKa in data set [1] and in data set [2] was 3.34 each time.

Usually pKa stands for the negative logarithm of the acid dissociation constant. Read a high pKa as a weaker acid or stronger base.
